The source of these data is ChEMBL document CHEMBL3758139, “Novel thiol-based histone deacetylase inhibitors bearing 3-phenyl-1H-pyrazole-5-carboxamide scaffold as surface recognition motif: Design, synthesis and SAR study” (Bioorg Med Chem Lett, 2016).

As a reminder, the IC50 is the midpoint of a concentration-inhibition curve.

SMILES strings stand for the structures. A value given as a limit tells only on which side of the number the result lay.

For data set [1], the target named is Histone deacetylase. Put plainly: Inhibition of HDAC in human HeLa nuclear extract. Type of data set: protein assay.
Data set [2] deals with T1, Histone deacetylase 1 (Homo sapiens, UniProt Q13547). Put plainly: Inhibition of recombinant human HDAC1.
In data set [3] the target is T2, Protein deacetylase HDAC6 (Homo sapiens, UniProt Q9UBN7).
T2 sequence (Q9UBN7 whole entry): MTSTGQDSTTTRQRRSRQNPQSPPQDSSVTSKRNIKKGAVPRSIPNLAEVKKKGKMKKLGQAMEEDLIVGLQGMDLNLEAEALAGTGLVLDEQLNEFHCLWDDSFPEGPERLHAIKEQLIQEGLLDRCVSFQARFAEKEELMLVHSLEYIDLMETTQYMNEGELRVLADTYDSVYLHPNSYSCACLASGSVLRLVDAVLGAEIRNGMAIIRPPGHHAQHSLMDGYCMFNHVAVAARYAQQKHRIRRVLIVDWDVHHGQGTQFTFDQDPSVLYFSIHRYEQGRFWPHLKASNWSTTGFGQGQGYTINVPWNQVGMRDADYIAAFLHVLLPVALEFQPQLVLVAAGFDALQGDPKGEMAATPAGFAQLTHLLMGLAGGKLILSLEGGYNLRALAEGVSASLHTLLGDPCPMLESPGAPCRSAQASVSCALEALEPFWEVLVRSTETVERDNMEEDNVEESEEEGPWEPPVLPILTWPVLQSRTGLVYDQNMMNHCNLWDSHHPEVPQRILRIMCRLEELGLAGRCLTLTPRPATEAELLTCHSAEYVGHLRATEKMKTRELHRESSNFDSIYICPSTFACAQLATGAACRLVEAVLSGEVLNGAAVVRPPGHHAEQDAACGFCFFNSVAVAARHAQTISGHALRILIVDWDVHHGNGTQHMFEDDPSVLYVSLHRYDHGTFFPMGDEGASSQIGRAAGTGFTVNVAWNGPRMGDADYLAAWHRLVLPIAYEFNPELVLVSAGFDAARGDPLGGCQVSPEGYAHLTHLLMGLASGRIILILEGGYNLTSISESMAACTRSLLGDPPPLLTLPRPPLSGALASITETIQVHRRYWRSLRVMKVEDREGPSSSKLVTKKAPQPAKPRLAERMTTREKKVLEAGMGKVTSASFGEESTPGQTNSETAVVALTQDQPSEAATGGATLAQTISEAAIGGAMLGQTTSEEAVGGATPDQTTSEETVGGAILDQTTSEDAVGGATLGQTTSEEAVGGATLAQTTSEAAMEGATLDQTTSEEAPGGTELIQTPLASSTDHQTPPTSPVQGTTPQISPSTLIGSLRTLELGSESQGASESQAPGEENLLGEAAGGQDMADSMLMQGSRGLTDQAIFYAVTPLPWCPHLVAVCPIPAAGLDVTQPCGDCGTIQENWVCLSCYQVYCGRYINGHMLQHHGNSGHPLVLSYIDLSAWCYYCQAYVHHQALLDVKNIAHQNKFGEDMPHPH
Description: Inhibition of recombinant human HDAC6.

A short description of data set [4]: Retention time of the compound. Type of data set: physicochemical.
The target in data set [5] is T1, Histone deacetylase 1. Description: Inhibition of HDAC1 (unknown origin).
In data set [6] the target is Histone deacetylase 2 (Homo sapiens, UniProt Q92769). Description: Inhibition of HDAC2 (unknown origin).
The target of data set [7] is Histone deacetylase 3 (Homo sapiens, UniProt O15379). Put plainly: Inhibition of HDAC3 (unknown origin).
The target in data set [8] is Histone deacetylase 4 (Homo sapiens, UniProt P56524). Description: Inhibition of HDAC4 (unknown origin).
Data set [9] has as its target T2, Protein deacetylase HDAC6. Put plainly: Inhibition of HDAC6 (unknown origin).
In data set [10] the target is T3, Histone deacetylase 8 (Homo sapiens, UniProt Q9BY41).
T3 sequence (Q9BY41 whole entry): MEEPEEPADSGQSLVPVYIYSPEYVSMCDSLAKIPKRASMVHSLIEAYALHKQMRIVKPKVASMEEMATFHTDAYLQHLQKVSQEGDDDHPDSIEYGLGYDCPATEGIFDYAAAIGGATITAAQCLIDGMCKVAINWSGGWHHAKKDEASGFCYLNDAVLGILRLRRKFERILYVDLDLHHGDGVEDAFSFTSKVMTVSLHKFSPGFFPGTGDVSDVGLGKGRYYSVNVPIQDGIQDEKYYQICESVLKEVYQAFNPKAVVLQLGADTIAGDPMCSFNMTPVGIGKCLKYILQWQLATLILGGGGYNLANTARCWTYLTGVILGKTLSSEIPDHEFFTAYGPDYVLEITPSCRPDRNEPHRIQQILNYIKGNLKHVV
Description: Inhibition of HDAC8 (unknown origin).

T1 sequence (Q13547 whole entry): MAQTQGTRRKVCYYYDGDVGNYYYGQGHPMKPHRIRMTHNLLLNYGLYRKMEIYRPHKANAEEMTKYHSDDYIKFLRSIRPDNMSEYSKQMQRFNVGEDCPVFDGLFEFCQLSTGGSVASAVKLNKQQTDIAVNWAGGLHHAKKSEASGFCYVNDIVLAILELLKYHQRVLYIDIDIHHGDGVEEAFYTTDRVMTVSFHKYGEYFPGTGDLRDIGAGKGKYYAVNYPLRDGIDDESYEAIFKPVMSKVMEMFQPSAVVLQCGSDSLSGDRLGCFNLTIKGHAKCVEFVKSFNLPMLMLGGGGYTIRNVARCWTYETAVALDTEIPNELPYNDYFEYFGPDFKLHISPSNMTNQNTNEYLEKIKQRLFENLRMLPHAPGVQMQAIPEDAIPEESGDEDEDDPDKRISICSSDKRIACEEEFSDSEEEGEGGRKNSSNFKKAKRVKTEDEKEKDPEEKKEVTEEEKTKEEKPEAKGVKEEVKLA
Chain of Histone deacetylase 3 (O15379 whole entry): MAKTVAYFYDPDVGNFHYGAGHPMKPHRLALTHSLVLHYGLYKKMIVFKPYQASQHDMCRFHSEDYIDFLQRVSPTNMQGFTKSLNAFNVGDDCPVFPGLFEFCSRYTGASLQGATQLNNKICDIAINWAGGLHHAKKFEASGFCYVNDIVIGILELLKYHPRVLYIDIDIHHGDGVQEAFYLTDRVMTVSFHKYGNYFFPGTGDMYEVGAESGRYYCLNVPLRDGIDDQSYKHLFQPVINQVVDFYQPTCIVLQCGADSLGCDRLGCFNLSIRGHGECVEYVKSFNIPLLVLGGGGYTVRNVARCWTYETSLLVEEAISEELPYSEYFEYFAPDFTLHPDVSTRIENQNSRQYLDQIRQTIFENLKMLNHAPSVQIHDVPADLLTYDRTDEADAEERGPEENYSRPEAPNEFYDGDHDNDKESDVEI
Chain of Histone deacetylase 2 (Q92769 whole entry): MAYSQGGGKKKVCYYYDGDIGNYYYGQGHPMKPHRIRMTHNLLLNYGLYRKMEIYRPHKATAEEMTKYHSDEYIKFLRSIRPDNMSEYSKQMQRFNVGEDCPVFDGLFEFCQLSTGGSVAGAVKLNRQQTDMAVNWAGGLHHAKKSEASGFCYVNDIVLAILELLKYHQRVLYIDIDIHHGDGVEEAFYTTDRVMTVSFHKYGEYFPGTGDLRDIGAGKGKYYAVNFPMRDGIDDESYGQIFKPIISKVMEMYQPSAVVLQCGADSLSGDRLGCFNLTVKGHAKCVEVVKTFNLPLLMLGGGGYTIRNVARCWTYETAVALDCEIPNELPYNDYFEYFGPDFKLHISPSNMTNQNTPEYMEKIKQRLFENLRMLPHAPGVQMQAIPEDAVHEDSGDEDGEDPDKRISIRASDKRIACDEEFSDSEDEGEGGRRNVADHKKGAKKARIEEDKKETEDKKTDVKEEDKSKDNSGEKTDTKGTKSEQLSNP
Chain of Histone deacetylase 4 (P56524 whole entry): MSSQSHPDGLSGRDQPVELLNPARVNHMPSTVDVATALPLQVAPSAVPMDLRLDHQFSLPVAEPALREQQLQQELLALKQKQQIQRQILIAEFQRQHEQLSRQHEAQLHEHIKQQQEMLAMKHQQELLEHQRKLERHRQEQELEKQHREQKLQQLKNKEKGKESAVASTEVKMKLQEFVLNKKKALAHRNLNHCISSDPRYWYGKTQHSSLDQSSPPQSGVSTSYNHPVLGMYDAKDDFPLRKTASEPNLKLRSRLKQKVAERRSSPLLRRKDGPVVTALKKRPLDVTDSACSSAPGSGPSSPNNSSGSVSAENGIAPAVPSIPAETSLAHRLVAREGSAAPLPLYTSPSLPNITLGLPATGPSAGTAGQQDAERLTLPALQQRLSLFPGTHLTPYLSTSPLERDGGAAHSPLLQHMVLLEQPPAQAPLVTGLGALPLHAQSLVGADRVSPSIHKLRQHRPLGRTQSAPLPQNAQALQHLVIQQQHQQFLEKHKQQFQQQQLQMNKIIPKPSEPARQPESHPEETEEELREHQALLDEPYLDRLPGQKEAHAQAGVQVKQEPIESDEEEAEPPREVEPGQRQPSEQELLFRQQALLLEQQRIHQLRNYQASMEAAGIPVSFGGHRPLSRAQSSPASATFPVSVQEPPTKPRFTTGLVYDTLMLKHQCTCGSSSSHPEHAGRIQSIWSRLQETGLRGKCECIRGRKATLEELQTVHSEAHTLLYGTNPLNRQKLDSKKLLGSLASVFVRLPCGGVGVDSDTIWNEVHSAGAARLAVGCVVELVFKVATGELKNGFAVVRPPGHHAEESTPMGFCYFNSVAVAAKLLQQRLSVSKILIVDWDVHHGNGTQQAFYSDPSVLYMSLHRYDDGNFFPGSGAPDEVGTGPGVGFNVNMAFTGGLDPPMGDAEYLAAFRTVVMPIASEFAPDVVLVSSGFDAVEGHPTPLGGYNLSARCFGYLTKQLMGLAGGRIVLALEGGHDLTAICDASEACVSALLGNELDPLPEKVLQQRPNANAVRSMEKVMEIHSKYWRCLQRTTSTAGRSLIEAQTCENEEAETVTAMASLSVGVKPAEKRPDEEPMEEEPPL

In the case of `CCCn1nc(C(=O)NCCCCCCS)cc1-c1ccc(F)cc1`, the IC50 in [1], in data set [2] and in data set [3] was more than 10 µM in each case. The Retention_time in data set [4] was found to be 5.2 min.
For the molecule `CCC(C)n1nc(-c2ccc(F)cc2)cc1C(=O)NCCCCCCS` (stereo not given), the IC50 in data set [1], in data set [2] and in [3] was more than 10 µM in each case. The Retention_time in data set [4] was determined as 8.4 min.
For the molecule `O=C(NCCCCCCS)c1cc(-c2ccc(F)cc2)n(CCCCO)n1`, the IC50 in data set [1] amounted to 0.54 µM; in data set [2], 0.44 µM; in data set [3] it was 0.22 µM. The molecule also yielded a Retention_time in [4] of 3.15 min.
Taken in the same sequence, the figures for `CCC(C)n1nc(C(=O)NCCCCCCS)cc1-c1ccc(F)cc1` (stereo not given) were more than 10 µM, more than 10 µM, more than 10 µM and 5.87 min.
In the same order, the values of `CCn1nc(C(=O)NCCCCCCS)cc1-c1ccc(F)cc1` are more than 10 µM, more than 10 µM, more than 10 µM and 4.29 min.
On to `O=C(CCS)NCCCNC(=O)c1cc(-c2ccc(F)cc2)[nH]n1`, for which the half-maximal inhibitory concentration (IC50) in data set [1], in data set [2] and in data set [3] was more than 10 µM each time. Further, the Retention_time in data set [4] is listed as 2.66 min.
Take `CC(=O)SCCCCCCNC(=O)c1cc(-c2ccc(F)cc2)nn1C`: the IC50 in data set [5] amounted to 0.021 µM; in data set [6] it was 0.14 µM; in data set [7], 0.068 µM; in data set [8], 10 µM; in data set [9], 10 µM; in [10], 4.2 µM.
